Reference: US9790233B2, “Compositions and methods of modulating 15-PGDH activity” (CASE WESTERN RESERVE UNIVERSITY, priority 2012, dated 2017)
Where two headings read alike, the source gives them in different places.

How the values were obtained:
[1] = tested on: wild-type mouse bone marrow; assay: Hematopoietic colonies from bone marrow treated ex vivo; format: cell-based; conditions: 1 uM, ex vivo on ice 2 hours
Description: Treated marrow is again then plated into methylcellulose for counting of hematopoietic colonies.

[2] = Metabolic stability with murine liver S9; format: in vitro ADME; conditions: for half-life: mouse, liver S9 fraction, Murine S9 fraction, Phase I cofactors, 0-240 minutes
Experimental: SW054384 (2 mM in DMSO) was incubated with Murine S9 (Lot KWB) fraction and Phase I (NADPH Regenerating System) cofactors for 0-240 minutes. Reactions were quenched with a 1 mL (1:1) of MeOH/(+)IS/0.2% Formic Acid, vortexed for 15 seconds, incubated at RT for 10 minutes and spun for 5 minutes at 2400 rpms. […] Supernatant (800 μL) was transferred to an HPLC vial (w/out insert) and analyzed by HPLC/MS. A: dH2O+0.1% FA B: MeOH+0.1% FA
SW125991 (2 mM in DMSO) was incubated with Murine S9 (Lot KWB) fraction and Phase I (NADPH Regenerating System) cofactors for 0-240 minutes. Reactions were quenched with 1 mL (1:1) of methanol containing 0.2% formic acid and 100 ng/ml IS (IS final conc.=50 ng/ml). Samples were vortexed for 15 seconds, incubated at RT for 10 minutes and spun for 5 minutes at 2400 rpm. […] Supernatant (800 μL) was transferred to an HPLC vial (w/out insert). Analyzed by Qtrap 3200 mass spectrometer.

A549 cells [3] = assay: Cellular toxicity on A549 cells (CellTiter-Glo); format: cell-based; set-up: Decrease Cell viability in A549 cell (%): concentration or dose not given beside the values
[4] = tested on: 15-PGDH luciferase fusion construct in LS174T reporter cell line; assay: 15-PGDH-luciferase fusion gene reporter induction, LS174T cells; format: cell-based; conditions: Homo sapiens
[5] = tested on: 15-PGDH luciferase fusion construct in V9m reporter cell line; assay: 15-PGDH-luciferase fusion gene reporter induction, V9m cells; format: cell-based; conditions: % induction of luciferase activity over basal level
[6] = tested on: 15-PGDH luciferase fusion construct in Vaco503 reporter cell line; assay: 15-PGDH-luciferase fusion gene reporter induction, V503 cells; format: cell-based; conditions: read-out: V503-3H9-7 reporter activity, % ([…]), V503 reporter cells, […] compound, % induction of luciferase activity over basal level
A549 cells [7] = assay: PGE2 levels in the medium of IL1-beta stimulated A549 cells; format: cell-based; conditions: for Decrease PGE-2 (IL-1beta-A549, %): media of IL-1beta stimulated A549 cells;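 for all read-outs here: PGE2 in the collected culture medium quantified by enzyme immunoassay (ELISA), with data drawn from three independent experiments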
15-PGDH protein [8] = molecular target: T1, 15-PGDH protein (Homo sapiens (Human), UniProt P15428); assay: Inhibition of enzymatic activity of recombinant 15-PGDH in vitro (tritium transfer from PGE2 or NADH fluorescence); format: biochemical; conditions: for IC50: read-out: IC50
15-PGDH protein [9] = molecular target: T1, 15-PGDH protein; assay: 15-PGDH protein levels in treated cells (western blot, immuno-fluorescence); format: cell-based; conditions: […] compound for 48 hours; colon cell lines
[10] = tested on: 15-PGDH-luciferase fusion reporter in V9m, LS174T and V503 cells; assay: 15-PGDH-luciferase fusion gene reporter induction, stated for the three cell line backgrounds together; format: cell-based; conditions: FIG. 1
15-PGDH protein [11] = molecular target: T1, 15-PGDH protein; assay: Shift of melting temperature of recombinant 15-PGDH (SYPRO Orange); format: binding; conditions: FIG. 14
15-PGDH mRNA = 15-PGDH mRNA levels by real-time PCR; format: cell-based; conditions: treated colon cancer cell lines
[12] = read-out: Ls174T-SC1 reporter activity, % ([…]), LS174T reporter cells, […] compound, % induction of luciferase activity over basal level, read-out: Ls174T-SC1 reporter activity, % (2.5 μM)
[13] = read-out: Ls174T-SC1 reporter activity, % ([…]), LS174T reporter cells, […] compound, % induction of luciferase activity over basal level, read-out: Ls174T-SC1 reporter activity, % (7.5 μM)
[14] = read-out: V9M-SC3 Reporter activity ([…]) (%), V9m reporter cells, […] compound, read-out: V9M-SC3 Reporter activity (2.5 μM) (%)
[15] = read-out: V9M-SC3 Reporter activity ([…]), %, V9m reporter cells, […] compound, read-out: V9M-SC3 Reporter activity (7.5 μM), %
[16] = read-out: V503-3H9-7 reporter activity, % (2.5 μM)
[17] = read-out: V503-3H9-7 reporter activity, % (7.5 μM)

T1 sequence (P15428 whole entry): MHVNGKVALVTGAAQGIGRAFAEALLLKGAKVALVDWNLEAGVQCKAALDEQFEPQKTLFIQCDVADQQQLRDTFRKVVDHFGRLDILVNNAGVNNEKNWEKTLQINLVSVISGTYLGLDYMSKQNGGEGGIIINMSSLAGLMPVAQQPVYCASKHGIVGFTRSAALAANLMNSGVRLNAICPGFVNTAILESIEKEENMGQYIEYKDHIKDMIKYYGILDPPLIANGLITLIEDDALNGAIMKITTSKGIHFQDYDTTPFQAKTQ

Row | half-life [2] [h] | SMILES | increase in bone marrow derived colonies relative to SW033291 [1] | activation at […] [4, 12] [%] | activation at […] [4, 13] [%] | activation at […] [5, 14] [%] | activation at […] [5, 15] [%] | activation at […] [6, 16] [%] | activation at […] [6, 17] [%] | lowering of PGE2 levels in media (A549 cells [7]) | Decrease PGE-2 (IL-1beta-A549, %) (A549 cells [7]) [%] | further results
1 |  | CCCCC(C)(C)[C@H](O)/C=C/[C@H]1[C@H](O)CC(=O)[C@@H]1C/C=C\CCCC(=O)O [dmPGE2, 16,16-dimethyl PGE2] | slightly greater increase |  |  |  |  |  |  |  |  | 
2 | 3.4 | COc1ccc(OC)c(N(CC(=O)N2CCOCC2)S(=O)(=O)c2ccccc2)c1 [SW125991] |  | 67.3 | 83.3 | 77.4 | 74.6 | 161 | 149 | show activity in lowering PGE2 | 31.33 | metabolic stability [2]: marked improvement in metabolic stability; toxicity by CellTiter-Glo (A549 cells [3]; 24 hours): no toxicity; Decrease Cell viability in A549 cell (%) (A549 cells [3]; A549 cells): −2.13%
3 | 0.362 | COc1ccc(OC)c(N(CC(=O)Nc2cccnc2)S(=O)(=O)c2ccccc2)c1 [SW054384] |  | 130 | 156 | 116 | 148 | 149 | 157 | show activity in lowering PGE2 | 41.96 | IC50 higher than that of SW033291 (15-PGDH protein [8]): 10,000 fold; IC50 (15-PGDH protein [8]; 15-PGDH-GST fusion protein, FIG. 11): 5 to 50 µM; IC50 (15-PGDH protein [8]; fluorescent based assay, FIG. 12): 11 µM; IC50 (15-PGDH protein [8]; tritium assay, FIG. 12): 8.4 µM; levels of 15-PGDH protein (western blot) (15-PGDH protein [9]): increase levels of 15-PGDH protein; concentration of maximum reporter activity [10]: 6.25 µM; luciferase activity of cells expressing 15-PGDH luciferase fusion construct ([10]; V9m, LS174T, V503): increase luciferase activity; PGE2 levels in medium (A549 cells [7]; compound added 24 hours before IL1-beta, maintained 26 hours with IL1-beta): lower level of PGE2 produced; direct binding to recombinant 15-PGDH (melting temperature shift) (15-PGDH protein [11]): cannot be demonstrated to bind 15-PGDH; 15-PGDH mRNA levels (real-time PCR) (15-PGDH mRNA): do not in general alter 15-PGDH mRNA levels
4 |  | CCCCC[C@H](O)/C=C/[C@H]1[C@H](O)CC(=O)[C@@H]1C/C=C\CCCC(=O)O [PGE2, prostaglandin E2] | lesser increase |  |  |  |  |  |  |  |  | 
